For 29 compounds, EC50 and IC50 results are on record in patent publication US9365541B2, “Compounds for use in the treatment of parasitic diseases” (IRBM—SCIENCE PARK S.P.A., priority 2012, dated 2016).

Some results are limits rather than exact numbers.

The subject of assay [1] is Plasmodium falciparum 3D7. Put plainly: P. falciparum growth inhibition assay (Pf-LDH). In kind it is cell-based. To be noted: Plasmodium falciparum, Erythrocyte; P. falciparum 3D7 infected erythrocytes, 72 h incubation, PfLDH readout. The method in brief: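 Compounds were tested against 72 h cultures of the 3D7 strain (0.25% parasitemia, 2% hematocrit, 37° C, low-oxygen gas). Parasite growth was quantified as lactate dehydrogenase activity via NBT reduction, absorbance 650 nm, after freezing and thawing.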

The target in assay [2] is T1, human HDAC1 (Homo sapiens, UniProt Q13547).
T1 construct: made in house; host or cells: HeLa (ATCC CCL-2), mammalian cells
T1 sequence (Q13547 whole entry): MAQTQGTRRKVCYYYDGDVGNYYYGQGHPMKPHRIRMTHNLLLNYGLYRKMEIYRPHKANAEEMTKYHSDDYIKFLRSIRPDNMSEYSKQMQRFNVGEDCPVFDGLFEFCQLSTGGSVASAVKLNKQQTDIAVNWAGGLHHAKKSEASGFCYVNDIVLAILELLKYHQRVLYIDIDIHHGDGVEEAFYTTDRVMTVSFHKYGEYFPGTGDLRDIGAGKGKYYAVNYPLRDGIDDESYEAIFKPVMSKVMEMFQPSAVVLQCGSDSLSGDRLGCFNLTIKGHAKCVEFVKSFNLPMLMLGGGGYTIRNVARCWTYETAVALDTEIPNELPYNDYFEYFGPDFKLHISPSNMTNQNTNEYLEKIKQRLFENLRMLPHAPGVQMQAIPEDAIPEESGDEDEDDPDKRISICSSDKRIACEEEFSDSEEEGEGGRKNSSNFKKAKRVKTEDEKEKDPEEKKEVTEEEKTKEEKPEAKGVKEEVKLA
In words: Homo sapiens HDAC1 inhibition assay (Fluor-de-Lys, enzymatic). In kind it is biochemical. To be noted: human HDAC enzymatic assay; read-out: hHDAC IC50. The method in brief:
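Fluorogenic deacetylation read-out: trypsin developer, supplemented with 2 μM final TSA as stop, releases fluorophore from deacetylated substrate.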

In assay [1], `CNC(=O)CCCCC[C@H](NC(=O)Cn1cc2ccccc2n1)c1ncc(-c2ccc3ccncc3c2)[nH]1` [Entry 208, (S)-7-(2-(2H-indazol-2-yl)acetamido)-7-(5-(isoquinolin-7-yl)-1H-imidazol-2-yl)-N-methyl-heptanamide] yielded an EC50 of less than 1000 nM. Further, the IC50 in assay [2] is less than 1000 nM.

On to `CNC(=O)CCCCC[C@H](NC(=O)C1CCN(C)CC1)c1ncc(-c2ccc3ccccc3c2)[nH]1` [Entry 5, (S)-1-methyl-N-(7-(methylamino)-1-(5-(naphthalen-2-yl)-1H-imidazol-2-yl)-7-oxo-heptyl)piperidine-4-carboxamide], for which the EC50 in assay [1] fell in the range of 1000 to 5000 nM. Also, the IC50 in assay [2] was less than 1000 nM.

Turning to `CNC(=O)CCCCC[C@H](NC(=O)CN1CCCCC1)c1ncc(-c2ccc3ccccc3c2)[nH]1` [Entry 1], the EC50 in assay [1] lay within 1000 to 5000 nM. In addition, the IC50 in assay [2] was in the range of 1000 to 5000 nM.

In the case of `CNC(=O)CCCCC[C@H](NC(=O)c1cncs1)c1ncc(-c2ccc(NC(C)=O)cc2)[nH]1` [Entry 53, (S)-N-(1-(5-(4-acetamidophenyl)-1H-imidazol-2-yl)-7-(methylamino)-7-oxoheptyl)thiazole-5-carboxamide], the EC50 in assay [1] was 1000 to 5000 nM. Further, the IC50 in assay [2] was 1000 to 5000 nM.

Compound `CNC(=O)CCCCC[C@H](NC(=O)OCc1ccccc1)c1ncc(-c2ccc3ccccc3c2)[nH]1` [Entry 72, (S)-benzyl (7-(methylamino)-1-(5-(naphthalen-2-yl)-1H-imidazol-2-yl)-7-oxo-heptyl)carbamate] gave a half-maximal effective concentration (EC50) in assay [1] of 1000 to 5000 nM. Further, the IC50 in assay [2] was less than 1000 nM.

As to `CNC(=O)CCCCC[C@H](NC(=O)C1CNC(=O)C1)c1ncc(-c2ccc3ccccc3c2)[nH]1` (stereo partly drawn) [Entry 166, N-((S)-7-(methylamino)-1-(5-(naphthalen-2-yl)-1H-imidazol-2-yl)-7-oxoheptyl)-5-oxopyrrolidine-3-carboxamide], in assay [1], the half-maximal effective concentration (EC50) lay in the range of 1000 to 5000 nM. Moreover, the 50% inhibitory concentration (IC50) in assay [2] lay within 1000 to 5000 nM.

As for `CNC(=O)CCCCC[C@H](NC(=O)C1CC1c1ccncc1)c1ncc(-c2ccc3ccncc3c2)[nH]1` (stereo partly drawn) [Entry 48, N-((S)-1-(5-(isoquinolin-7-yl)-1H-imidazol-2-yl)-7-(methylamino)-7-oxoheptyl)-2-(pyridin-4-yl)cyclopropane-carboxamide], the EC50 in assay [1] lay in the range of 1000 to 5000 nM. Further, the IC50 in assay [2] lay within 1000 to 5000 nM.

With `CNC(=O)CCCCC[C@H](NC(=O)CCc1c(C)nc2ncnn2c1C)c1ncc(-c2ccc3ccncc3c2)[nH]1` [Entry 122], in assay [1], the concentration giving a half-maximal response (EC50) is less than 1000 nM. For the same compound, in assay [2], the IC50 is less than 1000 nM.

Take `CNC(=O)CCCCC[C@H](NC(=O)Cn1cnnc1)c1ncc(-c2cc3ccccc3nc2OC)[nH]1` [Entry 184, (S)-7-(2-(4H-1,2,4-triazol-4-yl)acetamido)-7-(5-(2-methoxyquinolin-3-yl)-1H-imidazol-2-yl)-N-methylheptanamide]: in assay [1], the EC50 was 1000 to 5000 nM. In addition, the IC50 in assay [2] was in the range of 1000 to 5000 nM.

For `CNC(=O)CCCCC[C@H](NC(=O)c1cc(C)nn1C)c1ncc(-c2ccc(-c3ccn(C)n3)cc2)[nH]1` [Entry 215, (S)-1,3-dimethyl-N-(1-(5-(4-(1-methyl-1H-pyrazol-3-yl)phenyl)-1H-imidazol-2-yl)-7-(methylamino)-7-oxoheptyl)-1H-pyrazole-5-carboxamide], the EC50 in assay [1] is 1000 to 5000 nM. The IC50 in assay [2] was greater than 5000 nM.

Take `CNC(=O)CCCCC[C@H](NC(=O)CCc1c(C)nc2ncnn2c1C)c1ncc(-c2cc3ccccc3nc2OC)[nH]1` [Entry 186, (S)-7-(3-(5,7-dimethyl-[1,2,4]triazolo[1,5-a]pyrimidin-6-yl)propanamido)-7-(5-(2-methoxyquinolin-3-yl)-1H-imidazol-2-yl)-N-methylheptanamide]: in assay [1], the EC50 is less than 1000 nM. In assay [2], the IC50 was less than 1000 nM.

Take `CNC(=O)CCCCC[C@H](NC(=O)c1ccc(-n2cccc2)nc1)c1ncc(-c2ccc3ccccc3c2)[nH]1` [Entry 83, (S)-N-(7-(methylamino)-1-(5-(naphthalen-2-yl)-1H-imidazol-2-yl)-7-oxoheptyl)-6-(1H-pyrrol-1-yl)nicotinamide]: the concentration for a half-maximal effect (EC50) in assay [1] lay in the range of 1000 to 5000 nM. Besides, the IC50 in assay [2] is 1000 to 5000 nM.

The compound `CNC(=O)CCCCC[C@H](NC(=O)Cn1nnc2ccccc21)c1ncc(-c2cc3ccccc3nc2OC)[nH]1` [Entry 7] displayed an EC50 in assay [1] of 1000 to 5000 nM. In assay [2], the IC50 was less than 1000 nM.

Take `CNC(=O)CCCCC[C@H](NC(=O)c1ccnc2c1CCCN2)c1ncc(-c2ccc3ccccc3c2)[nH]1` [Entry 2, (S)-N-(7-(methylamino)-1-(5-(naphthalen-2-yl)-1H-imidazol-2-yl)-7-oxoheptyl)-5,6,7,8-tetrahydro-1,8-naphthyridine-4-carboxamide]: the EC50 in assay [1] lay in the range of 1000 to 5000 nM. For the same compound, the half-inhibitory concentration (IC50) in assay [2] was in the range of 1000 to 5000 nM.

Compound `CNC(=O)CCCCC[C@H](NC(=O)c1cncs1)c1ncc(-c2ccc3ccncc3c2)[nH]1` [Entry 143, (S)-N-(1-(5-(isoquinolin-7-yl)-1H-imidazol-2-yl)-7-(methylamino)-7-oxoheptyl)thiazole-5-carboxamide] yielded an EC50 in assay [1] of less than 1000 nM. The IC50 in assay [2] was less than 1000 nM.

In the case of `CNC(=O)CCCCC[C@H](NC(=O)CN1CCOCC1)c1ncc(-c2ccc3ccccc3c2)[nH]1` [Entry 23, (S)-N-methyl-7-(2-morpholinoacetamido)-7-(5-(naphthalen-2-yl)-1H-imidazol-2-yl)heptanamide], the EC50 in assay [1] is 1000 to 5000 nM. For the same compound, the IC50 in assay [2] lay within 1000 to 5000 nM.

As to `CNC(=O)CCCCC[C@H](NC(=O)Cn1cc2ccccc2n1)c1ncc(-c2ccc(-c3ccn(C)n3)cc2)[nH]1` [Entry 169, (S)-7-(2-(2H-indazol-2-yl)acetamido)-N-methyl-7-(5-(4-(1-methyl-1H-pyrazol-3-yl)phenyl)-1H-imidazol-2-yl)heptanamide], the EC50 in assay [1] is 1000 to 5000 nM. For the same compound, the IC50 in assay [2] was less than 1000 nM.

In the case of `CNC(=O)CCCCC[C@H](NC(=O)c1cnc(CN2CCCC2)s1)c1ncc(-c2ccc(-n3cccn3)cc2)[nH]1` [Entry 141, (S)-N-(1-(5-(4-(1H-pyrazol-1-yl)phenyl)-1H-imidazol-2-yl)-7-(methylamino)-7-oxoheptyl)-2-(pyrrolidin-1-ylmethyl)thiazole-5-carboxamide], the EC50 in assay [1] was 1000 to 5000 nM. Also, the IC50 in assay [2] is 1000 to 5000 nM.

`CNC(=O)CCCCC[C@H](NC(=O)CN1CCN(C)CC1)c1ncc(-c2ccc3ccccc3c2)[nH]1` [Entry 165, (S)-N-methyl-7-(2-(4-methylpiperazin-1-yl)acetamido)-7-(5-(naphthalen-2-yl)-1H-imidazol-2-yl)heptanamide]: the EC50 in assay [1] is greater than 5000 nM. In addition, in assay [2], the IC50 fell in the range of 1000 to 5000 nM.

As to `CNC(=O)CCCCC[C@H](NC(=O)Cn1ccnn1)c1ncc(-c2ccc3[nH]ncc3c2)[nH]1` [Entry 157, (S)-7-(2-(1H-1,2,3-triazol-1-yl)acetamido)-7-(5-(1H-indazol-5-yl)-1H-imidazol-2-yl)-N-methyl-heptanamide], the EC50 in assay [1] is greater than 5000 nM. Moreover, in assay [2], the IC50 was greater than 5000 nM.

Consider `CNC(=O)CCCCC[C@H](NC(=O)C1CC(=O)Nc2ccccc21)c1ncc(-c2ccc3ccccc3c2)[nH]1` (stereo partly drawn) [Entry 198, N-((S)-7-(methylamino)-1-(5-(naphthalen-2-yl)-1H-imidazol-2-yl)-7-oxoheptyl)-2-oxo-1,2,3,4-tetrahydroquinoline-4-carboxamide], for which the EC50 in assay [1] is less than 1000 nM. For the same compound, in assay [2], the IC50 was 1000 to 5000 nM.

`CNC(=O)CCCCC[C@H](NC(=O)c1cncs1)c1ncc(-c2ccc3ncccc3c2)[nH]1` [Entry 127, (S)-N-(7-(methylamino)-7-oxo-1-(5-(quinolin-6-yl)-1H-imidazol-2-yl)heptyl)thiazole-5-carboxamide] had an EC50 in assay [1] of less than 1000 nM. The IC50 in assay [2] lay within 1000 to 5000 nM.

For `CNC(=O)CCCCC[C@H](NC(=O)Cc1ccccc1)c1ncc(-c2ccc3ccccc3c2)[nH]1` [Entry 21], the EC50 in assay [1] fell in the range of 1000 to 5000 nM. Further, in assay [2], the IC50 was less than 1000 nM.

As for `CNC(=O)CCCCC[C@H](NC(=O)Cc1ncccn1)c1ncc(-c2ccc(-c3ccn(C)n3)cc2)[nH]1` [Entry 211], the EC50 in assay [1] was greater than 5000 nM. For the same compound, the concentration for half-maximal inhibition (IC50) in assay [2] was greater than 5000 nM.

For the compound `CNC(=O)CCCCC[C@H](NC(=O)c1cncs1)c1ncc(-c2ccc(-c3ccccn3)cc2)[nH]1` [Entry 139, (S)-N-(7-(methylamino)-7-oxo-1-(5-(4-(pyridin-2-yl)phenyl)-1H-imidazol-2-yl)heptyl)thiazole-5-carboxamide], in assay [1], the EC50 was 1000 to 5000 nM. Besides, the IC50 in assay [2] was in the range of 1000 to 5000 nM.

As to `CNC(=O)CCCCC[C@H](NC(=O)Cn1ccnn1)c1ncc(-c2ccc(-c3ccn(C)n3)cc2)[nH]1` [Entry 69, (S)-7-(2-(1H-1,2,3-triazol-1-yl)acetamido)-N-methyl-7-(5-(4-(1-methyl-1H-pyrazol-3-yl)phenyl)-1H-imidazol-2-yl)heptanamide], the EC50 in assay [1] is greater than 5000 nM. In addition, the IC50 in assay [2] was greater than 5000 nM.

In assay [1], `CNC(=O)CCCCC[C@H](NC(=O)c1cncs1)c1ncc(-c2ccn3ncnc3c2)[nH]1` [Entry 125, (S)-N-(1-(5-([1,2,4]triazolo[1,5-a]pyridin-7-yl)-1H-imidazol-2-yl)-7-(methylamino)-7-oxoheptyl)thiazole-5-carboxamide] gave an EC50 greater than 5000 nM. In addition, the IC50 in assay [2] is greater than 5000 nM.

In assay [1], `CNC(=O)CCCCC[C@H](NC(=O)c1nnc(C)s1)c1ncc(-c2ccc3ccccc3c2)[nH]1` [Entry 84, (S)-5-methyl-N-(7-(methylamino)-1-(5-(naphthalen-2-yl)-1H-imidazol-2-yl)-7-oxoheptyl)-1,3,4-thiadiazole-2-carboxamide] gave an EC50 greater than 5000 nM. In addition, in assay [2], the IC50 is 1000 to 5000 nM.

In assay [1], `CNC(=O)CCCCC[C@H](NC(=O)C1(C)CCOCC1)c1ncc(-c2ccc3ccccc3c2)[nH]1` [Entry 40] showed an EC50 of 1000 to 5000 nM. The IC50 in assay [2] was in the range of 1000 to 5000 nM.
